Test results: ChEMBL document CHEMBL2380212, “Synthesis, single crystal and antitumor activities of benzimidazole-quinazoline hybrids” (Bioorg Med Chem Lett, 2013)

Experiment: n-Octanol-phosphate buffer partition coefficient, log P of the compound at pH 7.4 by shake flask method
Type: physicochemical

logD: 2.72
Structure (SMILES): C=CCn1c(C)nc2ccc(Nc3nc(N4CCCCC4)nc4ccccc34)cc21
